For 27 compounds, IC50 results are on record in EP4660185A1, “NAV1.7- AND/OR NAV1.8-INHIBITING AMIDES, PROCESSES FOR THE PREPARATION THEREOF, COMPOSITIONS, USES, METHODS FOR TREATMENT USING SAME, AND KITS” (Eurofarma Laboratórios S.A., priority 2023, dated 2024).

In experiment [1] the target is T1, human sodium channels Nav 1.8 (Homo sapiens, UniProt Q9Y5Y9).
T1 construct: expressed in transfected cells
Kind of experiment: Automated whole-cell voltage-clamp (ScreenPatch 384P) sodium current block, Nav 1.8. It counts as cell-based. The conditions noted are these: CHO cells stably expressing human Nav 1.8; holding -100 mV, inactivation step -40 mV for 8 seconds, test step 10 mV (TP1A); exposure at least five minutes, room temperature; mean where tested in two or more assays; read-out: Nav1.8 IC50. Here is the method:
(§1) Biological assays were performed on Chinese hamster ovary (CHO) cells that express human sodium channels Nav 1.8 or Nav 1.7 in a stable manner.
(§2) The experimental protocol voltage-clamp using the whole cell configuration was established on the automated ScreenPatch® 384P platform (SP384PE, Nanion Technologies, Livingston, NJ) and the results were recorded with a Nanion 384-well Patch Clamp chip (NPC) (Nanion Technologies, Livingston, NJ).
(§3) Compounds of Formula Ia and Formula Ib were diluted in eight concentrations in the extracellular solution composed of saline solution, buffered with HEPES (mM): NaCl, 137; KCl, 4; CaCl2, 3,8; MgCl2, 1; HEPES, 10; Glucose, 10; pH 7.4. The […], 50; CsF, 90; MgCl2, 5; EGTA, 5; HEPES, 10; pH 7.2. The duration of exposure of each compound with cells expressing Nav 1.7 or Nav 1.8 was at least five minutes, and the assays were performed at room temperature.
(§4) The measurements of the sodium currents of Nav 1.8 and Nav 1.7 were obtained using the voltage protocol described below: A holding voltage of -100 mV was established followed by an inactivation voltage step at -40 mV for 8 seconds, followed by a step of -100 mV for 20 ms, followed by a 20 ms step for 10 mV for Nav 1.8 or 0 mV for Nav 1.7 (TP1A) before returning to the holding voltage of -100 mV.
(§5) The protocol was repeated at a frequency of 0.05 Hz and the amplitude of the current was quantified throughout the recording of the TP1A phase. The variation in the amplitude of the peak current was evaluated according to the formula described below, after exposing the cells expressing the channels to each concentration of the different compounds: % Block = (1−(ITP1A,molecule/ITP1A,basal)×100%, [formula] wherein ITP1A,basal and ITP1A,molecule represent the peaks of sodium current input into TP1A before exposure to the compound and in the presence of the compound, respectively.
(§6) Data were obtained by nonlinear regression (nonlinear least squares) with XLfit for Excel (Microsoft, Redmond, WA).
(§7) The compounds were tested in at least one assay to obtain the value of CI50. For compounds that were tested in two or more assays, the results are described as the mean of the CI50 values.

Experiment [2] has as its target T2, human sodium channels Nav 1.7 (Homo sapiens, UniProt Q15858).
T2 construct: expressed in transfected cells
As to the kind of experiment: Automated whole-cell voltage-clamp (ScreenPatch 384P) sodium current block, Nav 1.7. It counts as cell-based. The following applies: CHO cells stably expressing human Nav 1.7; holding -100 mV, inactivation step -40 mV for 8 seconds, test step 0 mV (TP1A); exposure at least five minutes, room temperature; mean where tested in two or more assays; read-out: Nav1.7 IC50. The procedure: as §1, §2, §3, §4, §5, §6, §7

T2 sequence (Q15858 whole entry): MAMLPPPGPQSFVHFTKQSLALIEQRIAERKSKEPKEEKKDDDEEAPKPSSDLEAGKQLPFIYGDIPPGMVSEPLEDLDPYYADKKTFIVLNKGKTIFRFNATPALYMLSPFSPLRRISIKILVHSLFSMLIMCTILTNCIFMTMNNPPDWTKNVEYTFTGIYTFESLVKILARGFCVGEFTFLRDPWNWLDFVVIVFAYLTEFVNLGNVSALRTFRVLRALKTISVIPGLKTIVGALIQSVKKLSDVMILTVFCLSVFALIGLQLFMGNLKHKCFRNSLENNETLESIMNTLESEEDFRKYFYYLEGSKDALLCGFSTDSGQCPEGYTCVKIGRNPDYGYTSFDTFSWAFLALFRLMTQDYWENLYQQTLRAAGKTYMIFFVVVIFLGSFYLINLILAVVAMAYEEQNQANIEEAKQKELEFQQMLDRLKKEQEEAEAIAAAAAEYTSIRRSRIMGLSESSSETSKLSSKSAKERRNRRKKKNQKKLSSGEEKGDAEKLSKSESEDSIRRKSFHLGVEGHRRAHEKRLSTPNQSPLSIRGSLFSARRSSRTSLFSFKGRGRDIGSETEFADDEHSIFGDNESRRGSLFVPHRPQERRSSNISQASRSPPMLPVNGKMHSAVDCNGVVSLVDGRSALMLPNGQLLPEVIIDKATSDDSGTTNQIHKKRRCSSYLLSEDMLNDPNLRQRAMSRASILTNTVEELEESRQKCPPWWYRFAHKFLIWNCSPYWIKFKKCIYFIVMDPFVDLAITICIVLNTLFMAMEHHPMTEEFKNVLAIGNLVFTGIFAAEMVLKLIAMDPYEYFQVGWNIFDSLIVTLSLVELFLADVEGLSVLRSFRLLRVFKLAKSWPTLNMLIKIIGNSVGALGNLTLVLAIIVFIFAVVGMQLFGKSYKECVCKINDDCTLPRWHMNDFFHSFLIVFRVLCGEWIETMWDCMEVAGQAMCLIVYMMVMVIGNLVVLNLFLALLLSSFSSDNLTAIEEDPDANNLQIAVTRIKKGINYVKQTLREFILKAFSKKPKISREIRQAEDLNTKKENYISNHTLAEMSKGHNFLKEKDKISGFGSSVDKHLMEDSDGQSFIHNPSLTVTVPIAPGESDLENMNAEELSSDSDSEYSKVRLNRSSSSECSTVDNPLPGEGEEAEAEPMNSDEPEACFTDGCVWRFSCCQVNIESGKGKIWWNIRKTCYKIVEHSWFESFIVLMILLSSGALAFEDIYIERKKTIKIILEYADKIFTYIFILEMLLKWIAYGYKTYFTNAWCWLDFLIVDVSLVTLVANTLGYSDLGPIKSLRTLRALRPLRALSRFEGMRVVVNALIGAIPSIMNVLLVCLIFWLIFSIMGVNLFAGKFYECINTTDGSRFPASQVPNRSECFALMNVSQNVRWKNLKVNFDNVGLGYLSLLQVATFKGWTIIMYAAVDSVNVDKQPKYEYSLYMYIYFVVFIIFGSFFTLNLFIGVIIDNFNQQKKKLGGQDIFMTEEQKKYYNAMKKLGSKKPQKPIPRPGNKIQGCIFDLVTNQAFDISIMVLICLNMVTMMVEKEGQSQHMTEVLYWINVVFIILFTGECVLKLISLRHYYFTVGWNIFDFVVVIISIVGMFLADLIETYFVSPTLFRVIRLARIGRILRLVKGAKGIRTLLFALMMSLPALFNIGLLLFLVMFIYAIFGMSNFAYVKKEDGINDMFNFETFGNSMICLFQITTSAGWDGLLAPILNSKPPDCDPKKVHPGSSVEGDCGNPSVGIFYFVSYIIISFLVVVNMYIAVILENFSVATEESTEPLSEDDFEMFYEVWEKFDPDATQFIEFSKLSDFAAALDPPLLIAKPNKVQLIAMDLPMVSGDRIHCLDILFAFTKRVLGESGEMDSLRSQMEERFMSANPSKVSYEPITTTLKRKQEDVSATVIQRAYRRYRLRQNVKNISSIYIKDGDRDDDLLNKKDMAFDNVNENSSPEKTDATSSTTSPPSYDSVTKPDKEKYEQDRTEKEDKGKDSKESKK
T1 sequence (Q9Y5Y9 whole entry): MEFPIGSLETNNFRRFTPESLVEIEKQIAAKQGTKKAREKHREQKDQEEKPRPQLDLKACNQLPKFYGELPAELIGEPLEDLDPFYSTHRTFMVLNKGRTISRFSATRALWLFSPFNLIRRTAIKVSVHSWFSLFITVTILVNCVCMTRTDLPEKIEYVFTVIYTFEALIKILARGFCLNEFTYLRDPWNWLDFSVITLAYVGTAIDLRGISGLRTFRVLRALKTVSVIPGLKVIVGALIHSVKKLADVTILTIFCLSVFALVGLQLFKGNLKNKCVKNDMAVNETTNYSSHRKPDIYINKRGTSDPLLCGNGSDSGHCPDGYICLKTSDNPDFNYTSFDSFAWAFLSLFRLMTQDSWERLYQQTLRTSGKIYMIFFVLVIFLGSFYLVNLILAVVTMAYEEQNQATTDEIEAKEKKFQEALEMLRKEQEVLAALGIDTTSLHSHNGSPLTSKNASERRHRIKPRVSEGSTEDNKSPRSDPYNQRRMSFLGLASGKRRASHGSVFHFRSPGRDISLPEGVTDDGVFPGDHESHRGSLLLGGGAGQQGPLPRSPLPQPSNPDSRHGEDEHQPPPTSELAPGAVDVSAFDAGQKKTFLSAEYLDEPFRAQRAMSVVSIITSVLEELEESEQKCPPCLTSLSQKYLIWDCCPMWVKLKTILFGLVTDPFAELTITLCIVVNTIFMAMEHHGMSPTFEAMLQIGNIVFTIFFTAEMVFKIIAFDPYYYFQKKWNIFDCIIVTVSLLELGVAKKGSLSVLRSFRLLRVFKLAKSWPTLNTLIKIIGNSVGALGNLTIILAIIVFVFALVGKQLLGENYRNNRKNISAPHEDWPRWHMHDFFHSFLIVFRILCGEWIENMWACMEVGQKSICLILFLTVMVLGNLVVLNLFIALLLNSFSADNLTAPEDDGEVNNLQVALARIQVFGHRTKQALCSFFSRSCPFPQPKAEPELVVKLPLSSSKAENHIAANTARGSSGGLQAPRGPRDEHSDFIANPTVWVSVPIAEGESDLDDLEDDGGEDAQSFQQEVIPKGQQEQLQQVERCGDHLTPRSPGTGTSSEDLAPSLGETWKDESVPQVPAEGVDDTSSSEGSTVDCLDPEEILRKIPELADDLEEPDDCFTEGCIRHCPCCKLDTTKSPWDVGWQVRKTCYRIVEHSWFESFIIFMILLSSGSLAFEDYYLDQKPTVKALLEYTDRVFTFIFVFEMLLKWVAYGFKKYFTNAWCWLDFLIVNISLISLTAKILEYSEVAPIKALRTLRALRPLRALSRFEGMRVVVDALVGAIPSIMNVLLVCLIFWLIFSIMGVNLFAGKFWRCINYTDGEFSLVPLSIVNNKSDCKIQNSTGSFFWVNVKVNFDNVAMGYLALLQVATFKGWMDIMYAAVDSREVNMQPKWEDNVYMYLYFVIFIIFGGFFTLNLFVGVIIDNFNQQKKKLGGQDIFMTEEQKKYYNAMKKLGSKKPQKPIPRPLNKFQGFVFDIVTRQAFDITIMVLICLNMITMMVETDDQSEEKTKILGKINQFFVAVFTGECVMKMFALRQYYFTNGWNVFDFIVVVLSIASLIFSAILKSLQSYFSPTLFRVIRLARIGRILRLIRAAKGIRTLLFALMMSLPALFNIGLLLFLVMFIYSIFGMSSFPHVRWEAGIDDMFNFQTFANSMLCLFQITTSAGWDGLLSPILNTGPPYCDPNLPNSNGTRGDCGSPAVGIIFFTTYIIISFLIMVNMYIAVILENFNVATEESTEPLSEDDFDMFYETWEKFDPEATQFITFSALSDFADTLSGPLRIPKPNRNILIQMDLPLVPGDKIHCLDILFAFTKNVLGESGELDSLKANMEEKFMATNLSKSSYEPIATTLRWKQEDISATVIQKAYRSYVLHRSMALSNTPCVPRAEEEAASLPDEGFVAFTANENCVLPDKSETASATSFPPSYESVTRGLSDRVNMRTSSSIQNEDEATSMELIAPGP

In the case of `CCOc1ccc(-c2cncc(C(=O)N[C@@H]3Cc4c(OC)cnc(F)c4C3)n2)cn1` [compound 84], the IC50 in experiment [1] was under 500 nM; in experiment [2], over 1000 nM.

On to `CCOc1ccc(-c2cncc(C(=O)NCc3ncc4ccc(OC)cn34)n2)cn1` [compound 85], for which the IC50 in experiment [1] and in experiment [2] was over 1000 nM throughout.

As for `CCOc1ccc(-c2cncc(C(=O)NCc3cnc4ccc(OC)cn34)n2)cn1` [compound 86], the IC50 in experiment [1] and in experiment [2] was over 1000 nM each time.

Consider `[2H]C([2H])([2H])Oc1ccc(-c2cncc(C(=O)NCCc3ccccc3F)n2)cn1` [compound 89], for which the IC50 in experiment [1] is under 500 nM; in experiment [2], over 1000 nM.

As for `[2H]C([2H])([2H])Oc1ccc(-c2cncc(C(=O)NCCc3cc(OC)cnc3F)n2)cn1` [compound 90], the IC50 in experiment [1] and in experiment [2] was over 1000 nM throughout.

For the compound `[2H]C([2H])([2H])Oc1cc(OC([2H])([2H])[2H])cc([C@H](O)CNC(=O)c2cncc(-c3ccc(OC(F)F)nc3)n2)c1` [compound 91], the figures for the half-inhibitory concentration (IC50) in experiment [1] and in experiment [2] were under 500 nM and over 1000 nM, respectively.

Turning to `[2H]C([2H])([2H])Oc1cc(OC([2H])([2H])[2H])cc([C@H](O)CNC(=O)c2cncc(-c3ccc(OC([2H])([2H])[2H])nc3)n2)c1` [compound 92], the IC50 in experiment [1] and in experiment [2] was over 1000 nM in each case.

As for `[2H]C([2H])([2H])Oc1ccc(-c2cncc(C(=O)NC[C@@H](O)c3cc(OC)cc(OC)c3)n2)cc1` [compound 93], the IC50 in experiment [1] is under 500 nM; in experiment [2] it was over 1000 nM.

`[2H]C([2H])([2H])Oc1ccc(-c2cncc(C(=O)NCCc3cc(OC)cnc3F)n2)cc1` [compound 94]: the IC50 in experiment [1] was under 500 nM; in experiment [2], over 1000 nM.

Regarding `[2H]C([2H])([2H])Oc1ccc(-c2cncc(C(=O)NCCc3cc(OC)cc(OC)c3)n2)cc1` [compound 95], the 50% inhibitory concentration (IC50) in experiment [1] is under 500 nM; in experiment [2], over 1000 nM.

Regarding `[2H]C([2H])([2H])Oc1cc(OC([2H])([2H])[2H])cc([C@H](O)CNC(=O)c2cncc(-c3ccc(OC(F)F)cc3)n2)c1` [compound 96], the concentration for half-maximal inhibition (IC50) was under 500 nM in experiment [1] and over 1000 nM in experiment [2].

Turning to `CCOc1ccc(-c2cc(C(=O)NCCc3cc(OC)cnc3F)cnn2)cc1` [compound 100], the IC50 in experiment [1] and in experiment [2] was over 1000 nM in each case.

Consider `CCOc1ccc(-c2cnnc(C(=O)NCCc3cc(OC)cnc3F)c2)cc1` [compound 101], for which the IC50 in experiment [1] and in experiment [2] was over 1000 nM in each case.

For `CCOc1ccc(-c2cncc(C(=O)NCCc3cc(OC)cnc3F)c2)cc1` [compound 102], the IC50 in experiment [1] and in experiment [2] was over 1000 nM each time.

Consider `CCOc1ccc(-c2cccc(C(=O)NCCc3cc(OC)cnc3F)n2)cc1` [compound 103], for which the IC50 in experiment [1] and in experiment [2] was over 1000 nM each time.

On to `CCOc1ccc(-c2cc(C(=O)NCCc3cc(OC)cnc3F)ccn2)cc1` [compound 104], for which the IC50 in experiment [1] and in experiment [2] was over 1000 nM in each case.

For the compound `CCOc1ccc(-c2ccnc(C(=O)NCCc3cc(OC)cnc3F)c2)cc1` [compound 105], the half-inhibitory concentration (IC50) in experiment [1] was over 1000 nM; in experiment [2], under 500 nM.

Consider `CCOc1ccc(-c2nccc(C(=O)NCCc3cc(OC)cnc3F)n2)cc1` [compound 106], for which the half-inhibitory concentration (IC50) in experiment [1] and in experiment [2] was over 1000 nM throughout.

With `CCOc1ccc(-c2ccnc(C(=O)NCCc3cc(OC)cnc3F)n2)cc1` [compound 107], the IC50 in experiment [1] was 500 to 1000 nM; in experiment [2], over 1000 nM.

`CCOc1ccc(-c2cccc(C(=O)NCCc3cc(OC)cnc3F)n2)cn1` [compound 108]: the IC50 in experiment [1] and in experiment [2] was over 1000 nM in each case.

For `CCOc1ccc(-c2cc(C(=O)NCCc3cc(OC)cnc3F)ccn2)cn1` [compound 109], the IC50 in experiment [1] and in experiment [2] was over 1000 nM throughout.

As to `CCOc1ccc(-c2nccc(C(=O)NCCc3cc(OC)cnc3F)n2)cn1` [compound 110], the IC50 in experiment [1] and in experiment [2] was over 1000 nM throughout.

Consider `CCOc1ccc(-c2cc(C(=O)NCCc3cc(OC)cnc3F)cnn2)cn1` [compound 111], for which the IC50 in experiment [1] and in experiment [2] was over 1000 nM throughout.

On to `CCOc1ccc(-c2cnnc(C(=O)NCCc3cc(OC)cnc3F)c2)cn1` [compound 112], for which the half-inhibitory concentration (IC50) in experiment [1] and in experiment [2] was over 1000 nM throughout.

In the case of `CCOc1ccc(-c2cncc(C(=O)NCCc3cc(OC)cnc3F)c2)cn1` [compound 113], the concentration for half-maximal inhibition (IC50) in experiment [1] and in experiment [2] was over 1000 nM each time.

With `CCOc1ccc(-c2ccnc(C(=O)NCCc3cc(OC)cnc3F)c2)cn1` [compound 114], the IC50 in experiment [1] and in experiment [2] was over 1000 nM throughout.

As for `CCOc1ccc(-c2ccnc(C(=O)NCCc3cc(OC)cnc3F)n2)cn1` [compound 115], the IC50 in experiment [1] and in experiment [2] was over 1000 nM throughout.

Usually IC50 stands for the concentration needed to halve the response being measured.
